{
  "source": "paper PMC8591608",
  "about": "“DNDI-6148: A Novel Benzoxaborole Preclinical Candidate for the Treatment of Visceral Leishmaniasis” (Journal of Medicinal Chemistry, 2021)",
  "key": {"[1]": {"system": "L. infantum and L. donovani", "test": "Hamster models of infection (summary statement)", "details": "in vivo efficacy in hamster models of infection", "description": "Female golden hamsters were randomly allocated to experimental groups of six animals each, based on body weight. At the start of the experiment (Day 0), each animal was infected with L. infantum or L. donovani inoculum, delivered by intracardial injection. Six hamsters were assigned to the vehicle-treated, infected control group. Six hamsters were assigned per group (1 group/compound) for the evaluation of compound and miltefosine. At Day 21 postinfection (21 dpi), all animals in each group were dosed orally for five (or ten) consecutive days (21–25 dpi): compound was dosed at 25–50 mg/kg b.i.d.; miltefosine was dosed at 40 mg/kg q.d. At Day 35 (10 days after the final oral dose), all animals were euthanized and autopsies were conducted. The study evaluated the following parameters. • 1. Adverse effects: all animals were observed daily for the occurrence/presence of adverse effects. • 2. […] Parasite burden: amastigote burdens in each target organ (liver, spleen, and bone marrow) were determined at Day 35. […] Impression smears were stained with Giemsa for microscopic examination of the total amastigote burden, defined as the mean number of amastigotes per cell multiplied by the number of cells counted (minimum 500 nuclei); the results were expressed as a percentage reduction in amastigote burden compared to vehicle-treated, infected control animals."}, "MDR1": {"system": "MDR1", "test": "in vitro", "format": "in vitro ADME", "details": "dog", "description": "Bidirectional permeability tests with MDCK-MDR1 cells were performed by WuXi AppTec, Co., China. The test compound, at a concentration of 2 μM in 0.4% DMSO/HBSS buffer with 10 mM HEPES pH 7.4, was applied to the apical or basolateral side of the cell monolayer. Permeation of the compound from A to B direction or B to A direction was determined in triplicate over a 150 min incubation at 37 °C and 5% CO2 (95% humidity). Test and reference compounds were quantified by LC-MS/MS analysis based on the peak area ratio of analyte/internal standard."}, "[2]": {"test": "Liver microsome stability, mouse", "format": "in vitro ADME", "details": "Balb/c, mouse liver microsomes, pH 7.4", "description": "(§1) Tests were performed by WuXi AppTec, China. Test compounds (at 1 μM) or positive controls (testosterone, propafenone, and diclofenac) were incubated at 37 °C with liver microsomes from Balb/c mouse, golden (Syrian) hamster, Sprague-Dawley rat, Beagle dog, or human in the presence of a NADPH regenerating system and phosphate buffer (100 mM, pH 7.4) at 0.4 or 0.8 mg/mL microsomal protein. The samples were removed at time intervals from 0 to 60, 90, or 120 min and immediately mixed with cold methanol supplemented or not with acid (3% formic acid) and centrifuged prior to analysis by LC-MS/MS using tolbutamide or propranolol as internal standards."}, "[3]": {"test": "Liver microsome stability, dog", "format": "in vitro ADME", "details": "Beagle, dog liver microsomes, pH 7.4", "description": "as §1"}, "[4]": {"test": "Hepatocyte stability, human", "format": "in vitro ADME", "details": "cryopreserved hepatocytes", "description": "Tests were performed by WuXi AppTec, China. Following a viability check of cryopreserved hepatocytes from Sprague-Dawley rat, Beagle dog, or human, test compounds (at 1 μM) or positive controls 7-ethoxycoumarin and 7-hydroxycoumarin (at 3 μM) were incubated at 37 °C, 5% CO2 with hepatocytes in Williams’ Medium E. Following incubation of 15, 30, 60, 90, 120, 180, and 240 min, reactions were stopped by the addition of acetonitrile, the samples were centrifuged, and LC-MS/MS analysis was conducted using tolbutamide as an internal standard."}, "[5]": {"test": "In vivo pharmacokinetics in dog", "parameters": "species or system male Beagle dogs", "details": "for MRT inf: read-out: MRT0-inf; for MRT last: read-out: MRT0-last", "description": "DNDI-6148 was administrated intravenously at 1 mg/kg and orally at 5 mg/kg to male Beagle dogs. The formulation for the i.v. leg was 2% ethanol, 1.0 mol equiv NaOH, dextrose (5% solution) filtered, and adjusted to pH 7, and for the p.o. leg, the formulation was 2% ethanol, 1.0 mol equiv NaOH, and dextrose (5% solution). The K2-EDTA anticoagulant was added to blood samples collected at predose, 0.033 (i.v. only), 0.083 (p.o. only), 0.25, 0.5, 1, 3, 6, 9, and 24 h, and were stabilized with phosphoric acid (1% final) before analysis by LC-MS/MS. PK parameters were calculated using WinNonlin software (version 6.3)."}, "[6]": {"system": "wild-type L. donovani promastigotes", "test": "Drug sensitivity, wild-type L. donovani promastigotes", "format": "cell-based", "details": "Leishmania donovani, Figure 2D", "description": "The clonal L. donovani cell line LdBOB (derived from MHOM/SD/62/1S-CL2D) was grown as promastigotes at 28 °C, as described previously. Bloodstream form T. brucei MiTat 1.2 clone 221a and its derived subline, 2T1, were cultured at 37 °C in the presence of 5% CO2 in HMI9-T medium, as described previously. T. brucei cell lines overexpressing CPSF3 and overexpressing a mutated version of CPSF3 (Asn232His) were generated as part of a previous study and cultured as described.[19]\nDrug sensitivity assays with wild-type and transgenic T. brucei and L. donovani cell lines were carried out as previously described.[31],[32]"}, "[7]": {"details": "male, Beagle, plasma, IV 1.0 mg/kg, mean"}, "[8]": {"details": "male, Beagle, plasma, PO 5 mg/kg, mean"}, "[9]": {"details": "male, Beagle, plasma, iv, i.v. 1 mg/kg"}},
  "note": "Where two headings read alike, the source gives them in different places.",
  "data": [
    {"compound": "Cc1c(C(=O)Nc2ccc3c(c2)B(O)OC3)nnn1-c1ccccn1", "note": "[Compound 23, N-(1-Hydroxy-1,3-dihydrobenzo[c][1,2]oxaborol-6-yl)-5-methyl-1-(pyridin-2-yl)-1H-1,2,3-triazole-4-carboxamide]", "values": [
      {"measurement": "reduction in parasite burden", "setting": "[1]", "value": "> 98", "unit": "%"},
      {"measurement": "Papp A→B at 150 min, 2 μM", "setting": "MDR1; MDCK-MDR1, pH 7.4", "value": 17.1, "unit": "×10⁻⁶ cm/s"},
      {"measurement": "Papp B→A at 150 min, 2 μM", "setting": "MDR1; MDCK-MDR1, pH 7.4", "value": 11.6, "unit": "×10⁻⁶ cm/s"},
      {"measurement": "efflux ratio at 150 min, 2 μM", "setting": "MDR1; MDCK-MDR1, pH 7.4", "value": 0.68},
      {"measurement": "efflux ratio at 2.5 h, 2 µM", "setting": "MDR1; MDCK-MDR1, pH 7.4", "value": 0.7},
      {"measurement": "recovery at 150 min, 2 μM", "setting": "MDR1; MDCK-MDR1, pH 7.4, Mean total recovery A to B", "value": 71.1, "unit": "%"},
      {"measurement": "recovery at 150 min, 2 μM", "setting": "MDR1; MDCK-MDR1, pH 7.4, Mean total recovery B to A", "value": 87.8, "unit": "%"},
      {"measurement": "microsomal CLint at 1 μM", "setting": "[2]", "value": "< 11.9", "unit": "µL/min/mg"},
      {"measurement": "microsomal CLint at 1 μM", "setting": "[3]", "value": 5.8, "unit": "µL/min/mg"},
      {"measurement": "hepatocyte CLint at 1 μM", "setting": "[4]", "value": 0.5, "unit": "µL/min/1e6 cells"},
      {"measurement": "AUC0-inf/AUC0-last", "setting": "[5]; IV 1.0 mg/kg, mean", "value": 102, "unit": "%"},
      {"measurement": "Tlast", "setting": "[5]; IV 1.0 mg/kg, mean", "value": 9.00, "unit": "h"},
      {"measurement": "AUC0-inf/AUC0-last", "setting": "[5]; PO 5 mg/kg, mean", "value": 103, "unit": "%"},
      {"measurement": "Tlast", "setting": "[5]; PO 5 mg/kg, mean", "value": 9.00, "unit": "h"},
      {"measurement": "concentration at 0.033 h", "setting": "[5]; male, Beagle, plasma, IV 1.0 mg/kg, 0.033 h, mean", "value": 1560, "unit": "ng/mL"},
      {"measurement": "concentration at 5 min", "setting": "[5]; [7]", "value": 1120, "unit": "ng/mL"},
      {"measurement": "concentration at 0.25 h", "setting": "[5]; [7]", "value": 644, "unit": "ng/mL"},
      {"measurement": "concentration at 0.5 h", "setting": "[5]; [7]", "value": 534, "unit": "ng/mL"},
      {"measurement": "concentration at 1 h", "setting": "[5]; [7]", "value": 373, "unit": "ng/mL"},
      {"measurement": "concentration at 3 h", "setting": "[5]; [7]", "value": 97.7, "unit": "ng/mL"},
      {"measurement": "concentration at 6 h", "setting": "[5]; [7]", "value": 23, "unit": "ng/mL"},
      {"measurement": "concentration at 9 h", "setting": "[5]; [7]", "value": 8.8, "unit": "ng/mL"},
      {"measurement": "concentration at 24 h", "setting": "[5]; [7]", "value": 0.9, "unit": "ng/mL"},
      {"measurement": "AUC(0-inf)", "setting": "[5]; [7]", "value": 1270, "unit": "ng·h/mL"},
      {"measurement": "AUC(0-t)", "setting": "[5]; [7]", "value": 1240, "unit": "ng·h/mL"},
      {"measurement": "C0", "setting": "[5]; [7]", "value": 1930, "unit": "ng/mL"},
      {"measurement": "half-life", "setting": "[5]; [7]", "value": 89.4, "unit": "min"},
      {"measurement": "MRT inf", "setting": "[5]; [7]", "value": 1.66, "unit": "h"},
      {"measurement": "MRT last", "setting": "[5]; [7]", "value": 1.51, "unit": "h"},
      {"measurement": "Vd", "setting": "[5]; male, Beagle, plasma, IV 1.0 mg/kg, mean, read-out: Vdss", "value": 1.31, "unit": "L/kg"},
      {"measurement": "concentration at 5 min", "setting": "[5]; [8]", "value": 266, "unit": "ng/mL"},
      {"measurement": "concentration at 0.25 h", "setting": "[5]; [8]", "value": 1130, "unit": "ng/mL"},
      {"measurement": "concentration at 0.5 h", "setting": "[5]; [8]", "value": 881, "unit": "ng/mL"},
      {"measurement": "concentration at 1 h", "setting": "[5]; [8]", "value": 814, "unit": "ng/mL"},
      {"measurement": "concentration at 3 h", "setting": "[5]; [8]", "value": 357, "unit": "ng/mL"},
      {"measurement": "concentration at 6 h", "setting": "[5]; [8]", "value": 54.8, "unit": "ng/mL"},
      {"measurement": "concentration at 9 h", "setting": "[5]; [8]", "value": 25.5, "unit": "ng/mL"},
      {"measurement": "concentration at 24 h", "setting": "[5]; [8]", "value": 0.9, "unit": "ng/mL"},
      {"measurement": "AUC(0-inf)", "setting": "[5]; [8]", "value": 2530, "unit": "ng·h/mL"},
      {"measurement": "AUC(0-t)", "setting": "[5]; [8]", "value": 2470, "unit": "ng·h/mL"},
      {"measurement": "Cmax", "setting": "[5]; [8]", "value": 1220, "unit": "ng/mL"},
      {"measurement": "Tmax", "setting": "[5]; [8]", "value": 37.8, "unit": "min"},
      {"measurement": "half-life", "setting": "[5]; [8]", "value": 87.6, "unit": "min"},
      {"measurement": "MRT inf", "setting": "[5]; [8]", "value": 2.42, "unit": "h"},
      {"measurement": "MRT last", "setting": "[5]; [8]", "value": 2.19, "unit": "h"},
      {"measurement": "Vd at 24 h", "setting": "[5]; [9]", "value": 1.3, "unit": "L/kg"},
      {"measurement": "clearance", "setting": "[5]; [9]", "value": 13.7, "unit": "mL/min/kg"},
      {"measurement": "half-life at 24 h", "setting": "[5]; [9]", "value": 90, "unit": "min"},
      {"measurement": "bioavailability at 24 h", "setting": "[5]; male, Beagle, plasma, po, p.o. 5 mg/kg", "value": 39, "unit": "%"},
      {"measurement": "EC50", "setting": "[6]", "value": "411 ± 12", "unit": "nM"}
    ]}
  ]
}
